Target: T1, N-formyl peptide receptor 2 (Homo sapiens, UniProt P25090)
T1 sequence (P25090 whole entry): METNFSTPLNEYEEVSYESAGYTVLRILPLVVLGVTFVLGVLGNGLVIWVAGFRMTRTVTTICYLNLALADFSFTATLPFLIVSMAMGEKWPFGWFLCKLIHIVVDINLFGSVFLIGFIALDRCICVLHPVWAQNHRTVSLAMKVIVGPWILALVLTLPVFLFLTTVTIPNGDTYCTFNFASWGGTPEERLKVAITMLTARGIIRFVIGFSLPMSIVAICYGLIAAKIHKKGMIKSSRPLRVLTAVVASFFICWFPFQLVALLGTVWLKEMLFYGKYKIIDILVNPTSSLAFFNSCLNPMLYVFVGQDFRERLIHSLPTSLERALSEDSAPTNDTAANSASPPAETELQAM
Experiment: Agonist activity at human FPR2 expressed in CHO cells assessed as forskolin-induced cAMP level incubated for 30 mins in presence of IBMX by HTRF HiRange cAMP assay
Type: functional, cell-based

Question: With `CC(C)S(=O)(=O)CC1(c2ccc(N3CC[C@@H](NC(=O)Nc4ccc(Cl)cc4F)C3=O)c(F)c2F)CC1` as the compound, how does the EC50 read?
Answer: 0.49 nM

Question: Which EC50 does the source give for `CC(=O)NCC1(c2ccc(N3CC[C@@H](NC(=O)Nc4ccc(Cl)cc4F)C3=O)c(F)c2F)CC1` here?
Answer: 0.41 nM

Question: For `CC(=O)N(C)CC1(c2ccc(N3CC[C@@H](NC(=O)Nc4ccc(C(F)(F)F)cc4F)C3=O)c(F)c2F)CC1`, which EC50 is on record?
Answer: 0.1 nM

Question: With `CP(C)(=O)CC1(c2ccc(N3CC[C@@H](NC(=O)Nc4ccc(C(F)(F)F)cc4F)C3=O)c(F)c2F)CCCC1` as the compound, how does the EC50 read?
Answer: 0.48 nM

Question: With `O=C(Nc1ccc(C(F)(F)F)cc1F)N[C@@H]1CCN(c2ccc(C3(CN4CCCC4=O)CC3)c(F)c2F)C1=O` as the compound, how does the EC50 read?
Answer: 0.23 nM

Question: `O=C(Nc1ccc(Cl)cc1F)N[C@@H]1CCN(c2ccc(C3(CN4CCCC4=O)CC3)c(F)c2F)C1=O` was tested. Which EC50 did it give?
Answer: 0.32 nM
